{"source": "patent US20160375049A1", "about": "“COMPOSITIONS” (GLOBALACORN LTD, priority 2013, published 2016)", "origin": "cited, not measured here", "key": {"P2X3 receptors": {"target": "T1, P2X3 receptors (Homo sapiens, UniProt P56373)", "T1 sequence (P56373 1-397)": "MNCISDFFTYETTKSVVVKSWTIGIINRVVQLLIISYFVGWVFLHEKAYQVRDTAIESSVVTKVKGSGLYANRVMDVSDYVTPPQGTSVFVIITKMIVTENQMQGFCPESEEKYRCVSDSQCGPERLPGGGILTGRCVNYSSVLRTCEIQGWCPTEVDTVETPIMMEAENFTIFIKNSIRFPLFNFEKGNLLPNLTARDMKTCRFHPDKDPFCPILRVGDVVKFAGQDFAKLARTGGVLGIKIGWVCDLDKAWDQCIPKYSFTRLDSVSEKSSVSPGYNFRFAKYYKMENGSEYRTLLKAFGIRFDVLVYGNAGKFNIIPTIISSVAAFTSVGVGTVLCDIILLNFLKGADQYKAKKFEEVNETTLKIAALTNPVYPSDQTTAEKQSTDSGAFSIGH"}, "[1]": {"tested_on": "inflammatory and neuropathic pain models", "settings": "systemic administration"}, "persistent pain": {"tested_on": "persistent pain", "settings": "in vivo"}, "[2]": {"tested_on": "acute noxious stimulation", "settings": "in vivo"}, "nociception": {"tested_on": "nociception", "settings": "in vivo"}}}
{"smiles": "O=C(O)c1cc(C(=O)O)c(C(=O)N(Cc2cccc(Oc3ccccc3)c2)[C@H]2CCCc3ccccc32)cc1C(=O)O", "note": "[A-317491]", "values": [{"measurement": "binding to P2X3 receptors, concentration range", "setting": "P2X3 receptors", "result": "micromolar range"}, {"measurement": "nociception in inflammatory and neuropathic pain models", "setting": "[1]", "result": "effectively reduced nociception"}, {"measurement": "persistent pain in formalin and acetic acid-induced abdominal constriction tests", "setting": "persistent pain", "result": "effectively blocked persistent pain"}, {"measurement": "activity in models of acute noxious stimulation", "setting": "[2]", "result": "generally inactive"}]}
{"smiles": "COc1cc(Cc2cnc(N)nc2N)c(C(C)C)cc1OC", "note": "[RO-3]", "values": [{"measurement": "anti-nociception in animal models", "setting": "nociception", "result": "induce anti-nociception"}]}
